From PubChem BioAssay AID1259407 (Chemical Carcinogenesis Research Information System (CCRIS), 2018)
Calls of active or inactive are those of the source. How the calls were made is not given here.

System: CCRIS mutagenicity, Ames/micronucleus/aberration tests
Experiment: CCRIS mutagenicity studies
[1] = Test System: AMES SALMONELLA TYPHIMURIUM, Strain/Indicator: TA100, Metabolic Activation: NONE, Method: PREINCUBATION
[2] = Test System: AMES SALMONELLA TYPHIMURIUM, Strain/Indicator: TA1535, Metabolic Activation: NONE, Method: PREINCUBATION
[3] = Test System: AMES SALMONELLA TYPHIMURIUM, Strain/Indicator: TA100, Metabolic Activation: NONE, Method: STANDARD PLATE

Measured: mutagenic call

OCCN(CCO)CCO
inactive: End Point: IN VITRO CHROMOSOMAL ABERRATIONS, Test System: CHINESE HAMSTER OVARY CELLS, Metabolic Activation: NONE inactive; negative | End Point: IN VITRO CHROMOSOMAL ABERRATIONS, Test System: CHINESE HAMSTER OVARY CELLS, Metabolic Activation: RAT, LIVER, S-9, AROCLOR 1254 inactive; negative | End Point: IN VITRO CHROMOSOMAL ABERRATIONS, Test System: CHO, Metabolic Activation: NONE inactive; negative | End Point: IN VITRO CHROMOSOMAL ABERRATIONS, Test System: CHO, Metabolic Activation: RAT, LIVER, S-9, AROCLOR 1254 inactive; negative | End Point: IN VIVO MICRONUCLEUS, Test System: POLYCHROMATIC BLOOD LYMPHOCYTES, Species: MOUSE, Strain/Sex: B6C3F1/MALE, FEMALE, Route: DERMAL inactive; negative | Test System: AMES SALMONELLA TYPHIMURIUM, Strain/Indicator: TA98, Metabolic Activation: HAMSTER LIVER S-9, AROCLOR-1254 (10%), Method: PREINCUBATION inactive; negative | Test System: AMES SALMONELLA TYPHIMURIUM, Strain/Indicator: TA98, Metabolic Activation: HAMSTER, LIVER, S-9 (10%), AROCLOR 1254, Method: PREINCUBATION inactive; negative | Test System: AMES SALMONELLA TYPHIMURIUM, Strain/Indicator: TA98, Metabolic Activation: NONE, Method: PREINCUBATION inactive; negative | Test System: AMES SALMONELLA TYPHIMURIUM, Strain/Indicator: TA98, Metabolic Activation: RAT LIVER S-9, AROCLOR-1254 (10%), Method: PREINCUBATION inactive; negative | Test System: AMES SALMONELLA TYPHIMURIUM, Strain/Indicator: TA98, Metabolic Activation: RAT, LIVER, S-9 (10%), AROCLOR 1254, Method: PREINCUBATION inactive; negative | Test System: AMES SALMONELLA TYPHIMURIUM, Strain/Indicator: TA100, Metabolic Activation: HAMSTER LIVER S-9, AROCLOR-1254 (10%), Method: PREINCUBATION inactive; negative | Test System: AMES SALMONELLA TYPHIMURIUM, Strain/Indicator: TA100, Metabolic Activation: HAMSTER, LIVER, S-9 (10%), AROCLOR 1254, Method: PREINCUBATION inactive; negative | [1] inactive; negative | Test System: AMES SALMONELLA TYPHIMURIUM, Strain/Indicator: TA100, Metabolic Activation: RAT LIVER S-9, AROCLOR-1254 (10%), Method: PREINCUBATION inactive; negative | Test System: AMES SALMONELLA TYPHIMURIUM, Strain/Indicator: TA100, Metabolic Activation: RAT, LIVER, S-9 (10%), AROCLOR 1254, Method: PREINCUBATION inactive; negative | Test System: AMES SALMONELLA TYPHIMURIUM, Strain/Indicator: TA1535, Metabolic Activation: HAMSTER LIVER S-9, AROCLOR-1254 (10%), Method: PREINCUBATION inactive; negative | Test System: AMES SALMONELLA TYPHIMURIUM, Strain/Indicator: TA1535, Metabolic Activation: HAMSTER, LIVER, S-9 (10%), AROCLOR 1254, Method: PREINCUBATION inactive; negative | [2] inactive; negative | Test System: AMES SALMONELLA TYPHIMURIUM, Strain/Indicator: TA1535, Metabolic Activation: RAT LIVER S-9, AROCLOR-1254 (10%), Method: PREINCUBATION inactive; negative | Test System: AMES SALMONELLA TYPHIMURIUM, Strain/Indicator: TA1535, Metabolic Activation: RAT, LIVER, S-9 (10%), AROCLOR 1254, Method: PREINCUBATION inactive; negative | Test System: AMES SALMONELLA TYPHIMURIUM, Strain/Indicator: TA1537, Metabolic Activation: HAMSTER LIVER S-9, AROCLOR-1254 (10%), Method: PREINCUBATION inactive; negative | Test System: AMES SALMONELLA TYPHIMURIUM, Strain/Indicator: TA1537, Metabolic Activation: HAMSTER, LIVER, S-9 (10%), AROCLOR 1254, Method: PREINCUBATION inactive; negative | Test System: AMES SALMONELLA TYPHIMURIUM, Strain/Indicator: TA1537, Metabolic Activation: NONE, Method: PREINCUBATION inactive; negative | Test System: AMES SALMONELLA TYPHIMURIUM, Strain/Indicator: TA1537, Metabolic Activation: RAT LIVER S-9, AROCLOR-1254 (10%), Method: PREINCUBATION inactive; negative | Test System: AMES SALMONELLA TYPHIMURIUM, Strain/Indicator: TA1537, Metabolic Activation: RAT, LIVER, S-9 (10%), AROCLOR 1254, Method: PREINCUBATION inactive; negative

CN=C1C=CC(=C(c2ccc(NC)cc2)c2ccc(N(C)C)cc2)C=C1
inactive: Test System: AMES SALMONELLA TYPHIMURIUM, Strain/Indicator: TA97, Metabolic Activation: NONE, Method: STANDARD PLATE inactive; negative | Test System: AMES SALMONELLA TYPHIMURIUM, Strain/Indicator: TA97, Metabolic Activation: RAT, LIVER, S-9, AROCLOR 1254, Method: STANDARD PLATE inactive; negative | Test System: AMES SALMONELLA TYPHIMURIUM, Strain/Indicator: TA98, Metabolic Activation: NONE, Method: STANDARD PLATE inactive; negative | Test System: AMES SALMONELLA TYPHIMURIUM, Strain/Indicator: TA98, Metabolic Activation: RAT, LIVER, S-9, AROCLOR 1254, Method: STANDARD PLATE inactive; negative | [3] inactive; negative | Test System: AMES SALMONELLA TYPHIMURIUM, Strain/Indicator: TA100, Metabolic Activation: RAT, LIVER, S-9, AROCLOR 1254, Method: STANDARD PLATE inactive; negative | Test System: AMES SALMONELLA TYPHIMURIUM, Strain/Indicator: TA104, Metabolic Activation: NONE, Method: STANDARD PLATE inactive; negative | Test System: AMES SALMONELLA TYPHIMURIUM, Strain/Indicator: TA104, Metabolic Activation: RAT, LIVER, S-9, AROCLOR 1254, Method: STANDARD PLATE inactive; negative

CN(C)CCNC(=O)c1cccc2c(=O)c3ccccc3sc12
active: Test System: AMES SALMONELLA TYPHIMURIUM, Strain/Indicator: TA1537, Metabolic Activation: NONE, Method: STANDARD PLATE active; positive

c1ccc(CC2CO2)cc1 (stereo not given)
active: [1] active; positive | [3] active; positive | [2] active; positive | Test System: AMES SALMONELLA TYPHIMURIUM, Strain/Indicator: TA1535, Metabolic Activation: NONE, Method: STANDARD PLATE active; positive

CN(C)c1ccc(/C=C/C=O)cc1
inactive: [1] inactive; negative | Test System: AMES SALMONELLA TYPHIMURIUM, Strain/Indicator: TA100, Metabolic Activation: RAT, LIVER, S-9, AROCLOR 1254, Method: PREINCUBATION inactive; negative
